# Patent publication US20240352066A1, “ANTIMICROBIAL COMPOUNDS AND THE METHOD OF USE” (priority 2021, published 2024)
# Where a SMILES comes first, the peptide text is derived from it. [ ]: non-standard residue; d: D form. N(tridecyl)Gly = CCCCCCCCCCCCCNCC(=O)O; Gly(N-2-aminoethyl) = NCCNCC(=O)O; Gly(N-cHex) = O=C(O)CNC1CCCCC1; Nleu = CC(C)CNCC(=O)O; Nlys = NCCCCNCC(=O)O
# Tests used:
# [1] = Percent acetonitrile at elution during RP-HPLC purification (hydrophobicity); format: physicochemical; details: percent acetonitrile at the time of elution from HPLC
# Description: All RMG8-8 derivatives were synthesized via the solid-phase submonomer synthesis method on polystyrene Rink Amide resin (Zuckermann et al. Journal of the American Chemical Society 114, 10646-10647 (1992)). The amines used during synthesis and the peptoid shorthand notations for each monomer are provided in Table 7 and Table 8, respectively. Compounds were purified to greater than 95% by RP-HPLC and compound identity was confirmed by ESI-TOF MS (Table 9). The calculated distribution coefficient at pH 7.4 (c Log D7.4) (via Chemaxon. MarvinSketch 19.17.0, 2019) and the percent acetonitrile at the time of elution during HPLC purification were recorded and serve as measures of hydrophobicity (Table 10). Higher values for c Log D7.4 and percent acetonitrile are indicators of increased compound hydrophobicity. With antimicrobial peptoids, hydrophobicity is directly related to both antimicrobial activity and cytotoxicity (Andreev et al. Biochimica et biophysica acta. Biomembranes 1860 6, 1414-1423 (2018); Bolt et al. Med chem comm 8, 886-896 (2017); Frederiksen et al. Molecules 24, (2019)). The ideal balance of these parameters generally must be determined experimentally. To measure antifungal activity, the minimum inhibitory concentration (MIC), defined as the concentration of compound required to inhibit 90% of fungal growth, was determined against C. neoformans using the broth microdilution method. Mammalian cytotoxicity was evaluated through a cell metabolic activity assay with HepG2 liver carcinoma cells, and select, potentially promising compounds were tested for unwanted hemolytic activity against human red blood cells.
# Peptoids were purified via Reversed-Phase High-Performance Liquid Chromatography (RP-HPLC) using a Varian Prepstar SD-1. A gradient of 0-100% water to acetonitrile containing 0.05% TFA made up the mobile phase, and a Supelco Ascentis C18 column (5 μm; 25 cm×21.2 mm; Sigma-Aldrich 581347-U) was used as the stationary phase. Peaks in the chromatogram above 0.1 AU were collected and analyzed via mass spectrometry. The peak product with the desired peptoid was dried down in vacuo and lyophilized overnight. Peptoids were then reconstituted in sterile […] deionized water to create compound stocks of 20 mg/mL.
# [2] = tested on: HPL1A lung cells; assay: in vitro; format: cell-based, human
# Procedure: (§1) Hepatocellular carcinoma (HepG2), mouse fibroblast (3T3), human lung (HPL1A), and human keratinocyte (HaCat) cells were cultured in Dulbecco modified eagle media (DMEM) containing 10% fetal bovine serum (FBS) and 1% penicillin, streptomycin, and glutamine (PSG) at 37° C. and 5% CO2. Cells were collected and adjusted to […] to 4×10^5 cells/mL in phenol-red free DMEM and plated (100 μL) 96 well plates. 2-fold serial dilutions of 10× peptoid (11.1 μL) were added to each well in triplicate. Water (vehicle) was used as a negative control. Plates were incubated at 37° C. in 5% CO2 for 72 hours. Thiazolyl blue tetrazolium bromide (MTT) was added to each well (5 mg/mL; 20 μL) and incubated for 3 hours. Media was removed, DMSO (100 μL) was added, and plates were incubated at 37° C. for 10 minutes. Plates were read on a SpectraMax M5 plate reader (Abs. 570 nm). The concentration of compound resulting in a 50% reduction in growth compared to control (toxicity dose 50%; TD50) was determined using GraFit. This procedure was repeated three times on separate days.
# [3] = tested on: HaCat keratinocyte cells; assay: in vitro; format: cell-based, human
# Procedure: as §1
# [4] = in vitro; format: cell-based, human; details: human
# Procedure: as §1
# [5] = tested on: 3T3 fibroblasts; assay: in vitro; format: cell-based, mouse
# Procedure: as §1
# [6] = in vitro; format: cell-based, mouse; details: mouse, 3T3 fibroblasts
# Procedure: as §1
# [7] = tested on: HepG2 hepatocellular carcinoma cells; assay: Mammalian cytotoxicity, MTT, HepG2; format: cell-based, human
# Outline: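 HepG2 cells (1×10^5 cells/mL, phenol-red-free DMEM, 10% FBS) were exposed to 2-fold dilutions of compound at 1.56–200 μg/mL final, in triplicate, for 72 h at 37 °C, 5% CO2. MTT was added for 3 h and, after DMSO solubilization, absorbance was read at 570 nm. TD50 is the concentration giving a 50% growth reduction versus the water vehicle, reported as the mean of biological replicates ± SD.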
# [8] = tested on: HepG2 hepatocellular carcinoma cells; details: RMG8-8, previously published results (Green et al. 2021); cited from earlier work
SMILES,% ACN [1],TD50 HPL1A [2],TD50 HaCat [3],CC50 at 72 h ([4]; HPL1A lung cells),CC50 at 72 h ([4]; HaCat keratinocyte cells),TD50 3T3 [5],CC50 at 72 h [6],TD50 HepG2 [7],HepG2 TD50 [8]
CCCCCCCCCCCCCNCC(=O)N(CC(=O)N(CCCCN)CC(=O)N(CCN)CC(=O)N(CC(N)=O)CC(C)C)CC(C)C [Compound 9] (H-[N(tridecyl)Gly][Nleu][Nlys][Gly(N-2-aminoethyl)][Nleu]-NH2),68.1%,,,,,,,,
"CCCCCCCCCCCCCNCC(=O)N(CC(=O)N(CCCCN)CC(=O)N(CCN)CC(=O)N(CC(N)=O)C1CCCCC1)C1CCCCC1 [RMG8-8, Ntri-Ncha-Nlys-Nae-Ncha] (H-[N(tridecyl)Gly][Gly(N-cHex)][Nlys][Gly(N-2-aminoethyl)][Gly(N-cHex)]-NH2)",,74 µg/mL,54 µg/mL,74 ± 8 µg/mL,54 ± 10 µg/mL,59 µg/mL,59 ± 15 µg/mL,189 µg/mL,189 ± 43 µg/mL
